Experiments:
[1] = test system: acetolactate synthase (ALS), Isolate 24 (S4/+) extract; test: ALS activity assay in cell extracts; format: biochemical, Nicotiana tabacum
Description: (§1) Cell suspension cultures of normal (H1) and homozygous mutant (Isolate 16) cell lines were washed in C1 liquid medium. After washing, cells were extracted in a 100 mM potassium phosphate buffer (pH 7.5) containing 0.5 mM MgCl2, 1 mM sodium pyruvate, 0.5 mM thiamine pyrophosphate, 10 micromolar flavine-adenine dinucleotide (FAD) and 10 percent (by volume) glycerol. Polyclar AT (BDH Chemicals Ltd) was added to a final concentration of 250 mg per gram fresh weight of tissue. After centrifugation at 27,000xg for 15 minutes at 4°, an equal volume of a saturated solution of amminium sulfate was added to the supernatant fraction. The resultant precipitate (representing a 0 to 50 percent ammonium sulfate fraction) was redissolved in 100 mM potassium phosphate buffer (pH 7.5) containing 0.5 mM MgCl2, 1 mM sodium pyruvate, and salts were removed by passage through a Sephadex G-25 (Pharmacia PD-10) column.
(§2) ALS activity was assayed in a total volume of 500 microliters containing 100 microliters of the column eluate, 65 mM potassium phosphate buffer (pH 7.5) containing 10 mM MgCl2, 40 mM sodium pyruvate, 250 micromolar thiamine pyrophosphate, 23 micromolar FAD, and 1, 5, 10, 50, 100, 500 or 1000 ppb chlorsulfuron or sulfometuron-methyl. After incubation at 30° for 90 minutes, 250 microliters of 6N H2 SO4 was added to each assay tube, and the tubes were incubated at 55° for 10 minutes to terminate the enzymatic reaction and achieve complete conversion of acetolactate to acetoin. Acetoin content was then measured by a modification of the procedure described by Westerfield, J. Biol. Chem. 161:495 (1945). To each tube was added sequentially 100 microliters 50 percent NaOH, 150 microliters 0.5 percent creatine, and 150 microliters 5 percent alpha-napthol (in 2.5N NaOH). Color development was accelerated by incubation at 55° for 10 minutes. Tubes were then centrifuged, and the optical density was read at 530 nm. Background optical densities, which were subtracted from the optical density values of the reactions, were determined for each extract from parallel assays to which the enzyme extract was added after the addition of 6N H2 SO4. Protein concentrations were measured with Bio-Rad Protein Assay reagent with bovine serum albumin as a standard. Data points and specific activities, which are set forth below and in FIG. 2, represent the average values of at least three independent determinations. ALS activities are presented in FIG. 2 as percent activity in the absence of herbicide.
(§3) Responses to chlorsulfuron were determined for ALS activities in extracts of cells suspension cultures derived from nine individuals that differed with resepct to the S4 mutation. As described above, these individuals were produced by self-fertilization of an S4/+ heterozygote, and their genotypes were established by means of progeny analysis. Callus and plant phenotypes were determined by growth responses of cell cultures and seedlings, respectively, on herbicide-supplemented medium. […] In contrast, all individuals homozygous for the S4 mutation contained a highly resistant form of the enzyme. […] The correlation between both callus and plant phenotype and the response of ALS activity in vitro to the herbicide is both absolute and quantitative.

[2] = test system: acetolactate synthase (ALS), Isolate 30 (S4/S4) extract; test: ALS activity assay in cell extracts; format: biochemical, Nicotiana tabacum
Description: as §1, §2, §3

[3] = test system: acetolactate synthase (ALS), Isolate 9 (S4/+) extract; test: ALS activity assay in cell extracts; format: biochemical, Nicotiana tabacum
Description: as §1, §2, §3

[4] = test system: acetolactate synthase (ALS), Isolate 27 (S4/S4) extract; test: ALS activity assay in cell extracts; format: biochemical, Nicotiana tabacum
Description: as §1, §2, §3

[5] = test system: acetolactate synthase (ALS), Isolate 1 (+/+) extract; test: ALS activity assay in cell extracts; format: biochemical, Nicotiana tabacum
Description: as §1, §2, §3

[6] = test system: parental and homozygous normal plants; test: Foliar spray whole plant test; format: in vivo, Nicotiana tabacum; settings: 5 mL spray
Description: Further studies of the effect of the S4 mutation on whole plant response to chlorsulfuron were conducted with plants of the parental variety and progeny of homozygous mutant and homozygous normal isolates (Nos. 16 and 1, respectively) of the previously described backcross program. Accordingly, plants of the latter two types were derived, but separated by four generations, from the initial S4 mutant plant regenerated from callus culture.
Plants at the 4-5 leaf stage were treated with foliar sprays of an aqueous solution containing 10% (v/v) acetone, 0.2% polyoxyethylene sorbitan monolaurate (Tween 20 ), and 1,3, 10, 30 or 100 ppm chlorsulfuron. Each plant received 5 mL of a spray solution. Two weeks after treatment, plants were evaluated for phytotoxicity and shoot heights were measured. […] At this lowest level of application, apical buds and youngest leaves of these sensitive plants were chlorotic. […] These symptoms were more pronounced with increasing chlorsulfuron concentrations. […] In contrast, homozygous mutant plants were unaffected by treatment with chlorsulfuron, even at the highest test concentration of 100 ppm.

[7] = biological target: T1, acetolactate synthase (ALS), H1 extract (Nicotiana tabacum, UniProt P09114); test: ALS activity assay in cell extracts; format: biochemical
T1 construct: ALS activity was then assayed in extracts prepared from these cell suspension cultures; endogenous in cells; host or cells: N. tabacum cv; Xanthi cell suspension cultures (H1 parental haploid line; +/+ segregants), 0-50% ammonium sulfate fraction of the extract
T1 sequence (P09114 92-664): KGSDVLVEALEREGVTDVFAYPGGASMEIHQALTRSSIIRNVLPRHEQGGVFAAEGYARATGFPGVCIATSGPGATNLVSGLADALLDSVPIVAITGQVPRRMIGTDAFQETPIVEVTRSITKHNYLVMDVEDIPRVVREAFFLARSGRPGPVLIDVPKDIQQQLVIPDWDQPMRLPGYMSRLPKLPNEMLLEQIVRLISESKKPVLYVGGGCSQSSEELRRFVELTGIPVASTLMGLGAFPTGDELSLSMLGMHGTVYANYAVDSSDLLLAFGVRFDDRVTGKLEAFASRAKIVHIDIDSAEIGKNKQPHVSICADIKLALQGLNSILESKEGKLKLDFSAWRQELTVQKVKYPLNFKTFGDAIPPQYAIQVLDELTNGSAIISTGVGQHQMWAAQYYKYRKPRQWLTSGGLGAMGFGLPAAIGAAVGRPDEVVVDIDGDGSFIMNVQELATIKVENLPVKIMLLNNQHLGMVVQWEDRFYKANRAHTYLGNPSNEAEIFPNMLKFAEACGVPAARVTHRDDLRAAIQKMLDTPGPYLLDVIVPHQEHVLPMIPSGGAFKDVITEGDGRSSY
Description: as §1, §2

`COc1nc(C)nc(NC(=O)NS(=O)(=O)c2ccccc2Cl)n1` [Chlorsulfuron, chlorsulfuron] was tested. Which “Uninhibited activity (%) in the Presence of Chlorsulfuron” value (“Uninhibited activity (%)” for short) ([1]; 10 ppb) did it give?
Its value is 60%.

What about the “Uninhibited activity (%)” value ([1]; 30 ppb) of the same compound?
Its value is 47%.

What about the “Uninhibited activity (%)” value ([1]; 100 ppb) of the same compound?
The value was 41%.

What about the “Uninhibited activity (%)” value ([2]; 10 ppb) of the same compound?
The value was 89%.

And the “Uninhibited activity (%)” value ([2]; 30 ppb)?
The value was 83%.

What about the “Uninhibited activity (%)” value ([2]; 100 ppb) of the same compound?
The value was 81%.

And the “Uninhibited activity (%)” value ([3]; 10 ppb)?
Its value is 59%.

And the “Uninhibited activity (%)” value ([3]; 30 ppb)?
The value was 50%.

And the “Uninhibited activity (%)” value ([3]; 100 ppb)?
Its value is 42%.

And the “Uninhibited activity (%)” value ([4]; 10 ppb)?
The value was 88%.

And the “Uninhibited activity (%)” value ([4]; 30 ppb)?
The value was 82%.

What about the “Uninhibited activity (%)” value ([4]; 100 ppb) of the same compound?
The value was 79%.

And the “Uninhibited activity (%)” value ([5]; 10 ppb)?
Its value is 42%.

And the “Uninhibited activity (%)” value ([5]; 30 ppb)?
Its value is 29%.

And the “Uninhibited activity (%)” value ([5]; 100 ppb)?
Its value is 23%.

What about the “phytotoxicity two weeks after foliar spray” value (shortened to “phytotoxicity two weeks”) ([6]; 1 ppm chlorsulfuron, 4-5 leaf stage) of the same compound?
The value was “developed symptoms of phytotoxicity”.

And the “phytotoxicity two weeks” value ([6]; 3 ppm chlorsulfuron)?
The value was “chlorosis was more severe and growth retardation readily apparent”.

What about the “phytotoxicity two weeks” value ([6]; 100 ppm chlorsulfuron) of the same compound?
The value was “extreme growth inhibition, chlorosis, and necrosis”.

And the remaining ALS activity (% of uninhibited) at 0.01 ppm ([7]; 10 ppb, Isolate H1 (+), read-out: Uninhibited activity (%) in the Presence of Chlorsulfuron)?
The remaining ALS activity (% of uninhibited) at 0.01 ppm was 40%.

What about the remaining ALS activity (% of uninhibited) at 0.03 ppm ([7]; 30 ppb, Isolate H1 (+), read-out: Uninhibited activity (%) in the Presence of Chlorsulfuron) of the same compound?
Its remaining ALS activity (% of uninhibited) at 0.03 ppm is 23%.

And the remaining ALS activity (% of uninhibited) at 0.1 ppm ([7]; 100 ppb, Isolate H1 (+), read-out: Uninhibited activity (%) in the Presence of Chlorsulfuron)?
The remaining ALS activity (% of uninhibited) at 0.1 ppm was 18%.

What about the IC50 ([7]; H1 cell line extract, read-out: concentration inhibiting ALS activity 50 percent (converted)) of the same compound?
The IC50 was roughly 14 nM.

From patent US4774381A, “Herbicide resistant tobacco” (E. I. Du Pont de Nemours and Company, priority 1985, dated 1988)
